In the kinase profiling compilation of Christmann-Franck et al. (2016):

What was measured:
Test in all cases: radiometric filter-binding kinase assay, Kinase HotSpot
Details in all cases: compound 0.5 µM; ATP 10 µM
MYLK2 (human) = MYLK2 (human) (UniProt Q9H1R3)
CDK5 CDK5R1 p25 (human) = CDK5 CDK5R1 p25 (human) (UniProt Q00535+Q15078)
DYRK3 (human) = DYRK3 (human) (UniProt O43781)
CSF1R (human) = CSF1R (human) (UniProt P07333)
PRKD1 (human) = PRKD1 (human) (UniProt Q15139)
MST4 (human) = MST4 (human) (UniProt Q9P289)
PRKCE (human) = PRKCE (human) (UniProt Q02156)
EPHA8 (human) = EPHA8 (human) (UniProt P29322)
ROS1 (human) = ROS1 (human) (UniProt P08922)
CSNK1G2 (human) = CSNK1G2 (human) (UniProt P78368)
EPHB2 (human) = EPHB2 (human) (UniProt P29323)
PRKCB2 (human) = PRKCB2 (human) (UniProt P05771)
Sequence of PRKCB2 (human) (P05771 whole entry, looked up): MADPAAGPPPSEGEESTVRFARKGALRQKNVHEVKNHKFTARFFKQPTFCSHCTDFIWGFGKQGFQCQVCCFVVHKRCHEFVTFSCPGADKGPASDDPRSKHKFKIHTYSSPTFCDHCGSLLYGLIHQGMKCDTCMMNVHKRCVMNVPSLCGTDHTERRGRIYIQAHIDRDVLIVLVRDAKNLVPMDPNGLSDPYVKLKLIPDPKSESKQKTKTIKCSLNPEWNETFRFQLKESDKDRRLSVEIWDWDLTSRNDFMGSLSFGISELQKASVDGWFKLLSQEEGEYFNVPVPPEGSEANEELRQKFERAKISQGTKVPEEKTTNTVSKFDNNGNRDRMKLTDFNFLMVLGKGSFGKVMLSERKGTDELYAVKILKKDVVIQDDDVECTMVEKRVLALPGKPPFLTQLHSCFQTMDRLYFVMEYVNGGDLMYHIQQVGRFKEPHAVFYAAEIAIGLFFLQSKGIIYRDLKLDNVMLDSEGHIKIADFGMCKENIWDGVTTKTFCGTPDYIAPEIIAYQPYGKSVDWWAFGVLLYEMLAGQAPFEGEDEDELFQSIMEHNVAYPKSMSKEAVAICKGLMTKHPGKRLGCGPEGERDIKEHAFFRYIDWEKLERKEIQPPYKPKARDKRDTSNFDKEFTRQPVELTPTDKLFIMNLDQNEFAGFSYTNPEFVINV

TEC (human) = TEC (human) (UniProt P42680)
SGK2 (human) = SGK2 (human) (UniProt Q9HBY8)
NEK1 (human) = NEK1 (human) (UniProt Q96PY6)
FLT3 (human) = FLT3 (human) (UniProt P36888)
INSR (human) = INSR (human) (UniProt P06213)
NEK3 (human) = NEK3 (human) (UniProt P51956)
Sequence of NEK3 (human) (P51956 whole entry, looked up): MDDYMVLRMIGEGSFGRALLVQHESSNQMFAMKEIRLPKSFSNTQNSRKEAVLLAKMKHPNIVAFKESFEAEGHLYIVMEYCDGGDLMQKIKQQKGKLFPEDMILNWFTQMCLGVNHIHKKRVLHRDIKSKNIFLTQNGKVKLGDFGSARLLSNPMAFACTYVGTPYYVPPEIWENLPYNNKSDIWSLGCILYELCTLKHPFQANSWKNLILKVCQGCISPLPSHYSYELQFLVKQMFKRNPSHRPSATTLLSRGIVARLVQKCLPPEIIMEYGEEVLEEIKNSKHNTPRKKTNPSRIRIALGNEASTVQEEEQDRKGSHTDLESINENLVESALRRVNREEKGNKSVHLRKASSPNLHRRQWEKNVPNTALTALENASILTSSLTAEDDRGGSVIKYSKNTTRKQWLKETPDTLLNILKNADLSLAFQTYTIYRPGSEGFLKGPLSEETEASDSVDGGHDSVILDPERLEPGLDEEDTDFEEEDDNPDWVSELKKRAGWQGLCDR

STK25 (human) = STK25 (human) (UniProt O00506)
AKT1 (human) = AKT1 (human) (UniProt P31749)
KIT (human) = KIT (human) (UniProt P10721)
PLK1 (human) = PLK1 (human) (UniProt P53350)
MAP3K2 (human) = MAP3K2 (human) (UniProt Q9Y2U5)
FER (human) = FER (human) (UniProt P16591)
ULK1 (human) = ULK1 (human) (UniProt O75385)
Sequence of ULK1 (human) (O75385 whole entry, looked up): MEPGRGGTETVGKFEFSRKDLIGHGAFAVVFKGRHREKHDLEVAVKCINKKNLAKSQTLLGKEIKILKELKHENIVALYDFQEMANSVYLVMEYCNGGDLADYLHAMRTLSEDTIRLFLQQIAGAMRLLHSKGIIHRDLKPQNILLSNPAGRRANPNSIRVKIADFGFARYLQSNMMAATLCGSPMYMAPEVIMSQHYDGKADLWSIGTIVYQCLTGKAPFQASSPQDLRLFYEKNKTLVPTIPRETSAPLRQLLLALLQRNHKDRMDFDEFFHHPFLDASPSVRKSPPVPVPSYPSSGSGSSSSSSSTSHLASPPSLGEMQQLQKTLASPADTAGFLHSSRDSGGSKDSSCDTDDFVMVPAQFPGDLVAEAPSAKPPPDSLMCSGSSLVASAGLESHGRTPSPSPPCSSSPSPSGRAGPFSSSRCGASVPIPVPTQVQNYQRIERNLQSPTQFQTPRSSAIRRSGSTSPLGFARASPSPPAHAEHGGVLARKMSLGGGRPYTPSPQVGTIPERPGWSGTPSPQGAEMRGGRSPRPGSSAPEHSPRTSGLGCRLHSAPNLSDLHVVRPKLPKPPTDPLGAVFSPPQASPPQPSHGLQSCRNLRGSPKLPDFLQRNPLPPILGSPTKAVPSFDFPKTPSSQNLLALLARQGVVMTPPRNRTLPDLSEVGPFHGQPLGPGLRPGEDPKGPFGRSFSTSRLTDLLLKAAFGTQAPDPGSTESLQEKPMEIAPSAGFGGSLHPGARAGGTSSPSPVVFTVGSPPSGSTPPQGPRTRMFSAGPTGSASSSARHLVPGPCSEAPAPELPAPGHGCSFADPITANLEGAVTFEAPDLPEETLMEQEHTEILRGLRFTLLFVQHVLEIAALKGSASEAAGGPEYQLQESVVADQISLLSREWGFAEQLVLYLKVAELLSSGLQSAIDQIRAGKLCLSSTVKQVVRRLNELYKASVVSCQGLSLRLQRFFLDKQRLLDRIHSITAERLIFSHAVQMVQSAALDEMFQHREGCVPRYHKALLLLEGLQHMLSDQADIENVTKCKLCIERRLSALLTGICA

INSRR (human) = INSRR (human) (UniProt P14616)
Sequence of INSRR (human) (P14616 whole entry, looked up): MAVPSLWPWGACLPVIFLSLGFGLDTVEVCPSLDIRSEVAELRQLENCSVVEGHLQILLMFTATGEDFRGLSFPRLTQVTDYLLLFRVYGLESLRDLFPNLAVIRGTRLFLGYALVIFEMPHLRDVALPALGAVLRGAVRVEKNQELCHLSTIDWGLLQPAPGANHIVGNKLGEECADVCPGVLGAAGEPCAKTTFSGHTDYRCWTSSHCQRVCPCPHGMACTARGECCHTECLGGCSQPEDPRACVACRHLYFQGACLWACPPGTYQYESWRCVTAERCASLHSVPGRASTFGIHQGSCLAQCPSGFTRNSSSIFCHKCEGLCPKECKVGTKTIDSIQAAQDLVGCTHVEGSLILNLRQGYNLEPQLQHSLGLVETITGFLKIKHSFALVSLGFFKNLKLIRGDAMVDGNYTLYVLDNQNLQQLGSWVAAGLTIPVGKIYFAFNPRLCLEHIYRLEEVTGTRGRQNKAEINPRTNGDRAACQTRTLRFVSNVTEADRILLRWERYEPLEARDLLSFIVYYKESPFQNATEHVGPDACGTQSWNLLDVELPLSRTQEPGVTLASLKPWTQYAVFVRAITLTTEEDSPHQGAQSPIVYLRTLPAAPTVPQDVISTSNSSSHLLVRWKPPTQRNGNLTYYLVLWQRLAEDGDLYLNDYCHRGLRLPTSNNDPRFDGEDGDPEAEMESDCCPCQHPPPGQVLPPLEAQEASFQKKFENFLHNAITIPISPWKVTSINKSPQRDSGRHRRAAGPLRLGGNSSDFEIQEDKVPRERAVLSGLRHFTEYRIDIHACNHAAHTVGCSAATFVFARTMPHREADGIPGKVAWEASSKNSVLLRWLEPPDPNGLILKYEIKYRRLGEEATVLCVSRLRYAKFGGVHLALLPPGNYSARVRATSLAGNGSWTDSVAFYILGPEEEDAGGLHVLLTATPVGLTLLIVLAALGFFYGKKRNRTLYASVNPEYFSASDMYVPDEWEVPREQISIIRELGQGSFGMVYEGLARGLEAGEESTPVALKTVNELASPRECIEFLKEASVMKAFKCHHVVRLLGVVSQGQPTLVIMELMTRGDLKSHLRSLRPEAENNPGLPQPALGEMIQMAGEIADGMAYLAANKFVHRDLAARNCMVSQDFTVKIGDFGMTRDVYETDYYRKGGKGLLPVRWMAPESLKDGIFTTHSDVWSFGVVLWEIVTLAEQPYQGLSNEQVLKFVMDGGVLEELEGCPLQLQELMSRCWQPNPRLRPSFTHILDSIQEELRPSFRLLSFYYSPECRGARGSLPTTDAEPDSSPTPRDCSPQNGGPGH

MAP4K5 (human) = MAP4K5 (human) (UniProt Q9Y4K4)
IKBKE (human) = IKBKE (human) (UniProt Q14164)
GRK5 (human) = GRK5 (human) (UniProt P34947)
CDC42BPA (human) = CDC42BPA (human) (UniProt Q5VT25)
CSNK1E (human) = CSNK1E (human) (UniProt P49674)
Sequence of CSNK1E (human) (P49674 whole entry, looked up): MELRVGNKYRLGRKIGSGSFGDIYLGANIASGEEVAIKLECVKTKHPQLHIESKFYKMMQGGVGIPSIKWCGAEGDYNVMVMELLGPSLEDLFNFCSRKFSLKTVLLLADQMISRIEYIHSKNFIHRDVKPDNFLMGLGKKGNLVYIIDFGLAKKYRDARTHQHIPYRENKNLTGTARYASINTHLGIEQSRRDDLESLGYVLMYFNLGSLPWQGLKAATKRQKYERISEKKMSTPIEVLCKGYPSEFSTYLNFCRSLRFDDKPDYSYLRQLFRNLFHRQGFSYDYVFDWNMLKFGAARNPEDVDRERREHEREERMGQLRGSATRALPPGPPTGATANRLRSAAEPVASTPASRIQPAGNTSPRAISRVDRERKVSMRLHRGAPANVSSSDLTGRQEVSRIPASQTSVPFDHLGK

EPHA5 (human) = EPHA5 (human) (UniProt P54756)
PDGFRA (human) = PDGFRA (human) (UniProt P16234)
MAP3K8 (human) = MAP3K8 (human) (UniProt P41279)
Sequence of MAP3K8 (human) (P41279 whole entry, looked up): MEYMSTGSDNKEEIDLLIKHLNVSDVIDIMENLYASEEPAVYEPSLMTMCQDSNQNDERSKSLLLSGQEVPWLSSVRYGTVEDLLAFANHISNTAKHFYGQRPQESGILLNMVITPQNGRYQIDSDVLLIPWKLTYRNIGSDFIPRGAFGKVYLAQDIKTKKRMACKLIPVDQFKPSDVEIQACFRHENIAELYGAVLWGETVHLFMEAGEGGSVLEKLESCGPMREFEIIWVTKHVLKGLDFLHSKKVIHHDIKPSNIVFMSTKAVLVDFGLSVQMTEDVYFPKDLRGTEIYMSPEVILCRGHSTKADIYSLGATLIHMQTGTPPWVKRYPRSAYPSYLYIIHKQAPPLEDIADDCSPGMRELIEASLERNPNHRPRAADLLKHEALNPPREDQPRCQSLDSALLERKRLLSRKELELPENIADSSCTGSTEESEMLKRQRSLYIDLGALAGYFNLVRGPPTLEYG

PTK2 (human) = PTK2 (human) (UniProt Q05397)
MUSK (human) = MUSK (human) (UniProt O15146)
ROCK2 (human) = ROCK2 (human) (UniProt O75116)
ADRBK2 (human) = ADRBK2 (human) (UniProt P35626)
PNCK (human) = PNCK (human) (UniProt Q6P2M8)
PAK6 (human) = PAK6 (human) (UniProt Q9NQU5)
PRKCB1 (human) = PRKCB1 (human) (UniProt P05771)
Sequence of PRKCB1 (human) (P05771 whole entry, looked up): as the sequence (P05771 whole entry, looked up) above

MAPKAPK3 (human) = MAPKAPK3 (human) (UniProt Q16644)

SMILES: CC(=O)O/N=C1\C(=C2\C(=O)Nc3cc(Br)ccc32)Nc2ccccc21
- residual activity (MYLK2 (human)): 55%
- residual activity (CDK5 CDK5R1 p25 (human)): 51.4%
- residual activity (DYRK3 (human)): 91.3%
- residual activity (CSF1R (human)): 84%
- residual activity (PRKD1 (human)): 82.1%
- residual activity (MST4 (human)): 78.7%
- residual activity (PRKCE (human)): 86.2%
- residual activity (EPHA8 (human)): 96.3%
- residual activity (ROS1 (human)): 105%
- residual activity (CSNK1G2 (human)): 89.7%
- residual activity (EPHB2 (human)): 81.4%
- residual activity (PRKCB2 (human)): 101%
- residual activity (TEC (human)): 131%
- residual activity (SGK2 (human)): 92.8%
- residual activity (NEK1 (human)): 94.7%
- residual activity (FLT3 (human)): 21.6%
- residual activity (INSR (human)): 94.8%
- residual activity (NEK3 (human)): 130%
- residual activity (STK25 (human)): 80.9%
- residual activity (AKT1 (human)): 99.6%
- residual activity (KIT (human)): 62.3%
- residual activity (PLK1 (human)): 105%
- residual activity (MAP3K2 (human)): 93.1%
- residual activity (FER (human)): 86.4%
- residual activity (ULK1 (human)): 95.6%
- residual activity (INSRR (human)): 96.7%
- residual activity (MAP4K5 (human)): 24.1%
- residual activity (IKBKE (human)): 81.4%
- residual activity (GRK5 (human)): 104%
- residual activity (CDC42BPA (human)): 85.8%
- residual activity (CSNK1E (human)): 55.8%
- residual activity (EPHA5 (human)): 102%
- residual activity (PDGFRA (human)): 82.9%
- residual activity (MAP3K8 (human)): 104%
- residual activity (PTK2 (human)): 95.9%
- residual activity (MUSK (human)): 68.5%
- residual activity (ROCK2 (human)): 91.7%
- residual activity (ADRBK2 (human)): 95.7%
- residual activity (PNCK (human)): 96.3%
- residual activity (PAK6 (human)): 74.8%
- residual activity (PRKCB1 (human)): 105%
- residual activity (MAPKAPK3 (human)): 105%

SMILES: Nc1nnc2[nH]c3ccccc3nc1-2
- residual activity (MYLK2 (human)): 90.5%
- residual activity (CDK5 CDK5R1 p25 (human)): 85.4%
- residual activity (DYRK3 (human)): 102%
- residual activity (CSF1R (human)): 95.3%
- residual activity (PRKD1 (human)): 94.9%
- residual activity (MST4 (human)): 91.2%
- residual activity (PRKCE (human)): 86.4%
- residual activity (EPHA8 (human)): 104%
- residual activity (ROS1 (human)): 106%
- residual activity (CSNK1G2 (human)): 93.8%
- residual activity (EPHB2 (human)): 103%
- residual activity (PRKCB2 (human)): 88.5%
- residual activity (TEC (human)): 108%
- residual activity (SGK2 (human)): 90.3%
- residual activity (NEK1 (human)): 91.7%
- residual activity (FLT3 (human)): 75.9%
- residual activity (INSR (human)): 95.3%
- residual activity (NEK3 (human)): 94.9%
- residual activity (STK25 (human)): 99.9%
- residual activity (AKT1 (human)): 106%
- residual activity (KIT (human)): 100%
- residual activity (PLK1 (human)): 94.5%
- residual activity (MAP3K2 (human)): 92.6%
- residual activity (FER (human)): 94.4%
- residual activity (ULK1 (human)): 106%
- residual activity (INSRR (human)): 89.3%
- residual activity (MAP4K5 (human)): 96.8%
- residual activity (IKBKE (human)): 99.4%
- residual activity (GRK5 (human)): 101%
- residual activity (CDC42BPA (human)): 95.4%
- residual activity (CSNK1E (human)): 90.2%
- residual activity (EPHA5 (human)): 90.3%
- residual activity (PDGFRA (human)): 103%
- residual activity (MAP3K8 (human)): 81.3%
- residual activity (PTK2 (human)): 94.6%
- residual activity (MUSK (human)): 82.6%
- residual activity (ROCK2 (human)): 93.3%
- residual activity (ADRBK2 (human)): 92.4%
- residual activity (PNCK (human)): 102%
- residual activity (PAK6 (human)): 96.3%
- residual activity (PRKCB1 (human)): 103%
- residual activity (MAPKAPK3 (human)): 101%

SMILES: COc1cc2ncnc(N3CCN(C(=O)Nc4ccc(Oc5ccccc5)cc4)CC3)c2cc1OC
- residual activity (MYLK2 (human)): 94.6%
- residual activity (CDK5 CDK5R1 p25 (human)): 77.1%
- residual activity (DYRK3 (human)): 86.3%
- residual activity (CSF1R (human)): 67.2%
- residual activity (PRKD1 (human)): 102%
- residual activity (MST4 (human)): 95.4%
- residual activity (PRKCE (human)): 106%
- residual activity (EPHA8 (human)): 92.5%
- residual activity (ROS1 (human)): 89.7%
- residual activity (CSNK1G2 (human)): 94.6%
- residual activity (EPHB2 (human)): 98.2%
- residual activity (PRKCB2 (human)): 102%
- residual activity (TEC (human)): 101%
- residual activity (SGK2 (human)): 96.7%
- residual activity (NEK1 (human)): 92.6%
- residual activity (FLT3 (human)): 43.2%
- residual activity (INSR (human)): 98.2%
- residual activity (NEK3 (human)): 100%
- residual activity (STK25 (human)): 100%
- residual activity (AKT1 (human)): 93.7%
- residual activity (KIT (human)): 48.2%
- residual activity (PLK1 (human)): 96.6%
- residual activity (MAP3K2 (human)): 81.2%
- residual activity (FER (human)): 99.8%
- residual activity (ULK1 (human)): 110%
- residual activity (INSRR (human)): 96.8%
- residual activity (MAP4K5 (human)): 81.6%
- residual activity (IKBKE (human)): 98.9%
- residual activity (GRK5 (human)): 82.2%
- residual activity (CDC42BPA (human)): 95.4%
- residual activity (CSNK1E (human)): 94.6%
- residual activity (EPHA5 (human)): 98.3%
- residual activity (PDGFRA (human)): 16.4%
- residual activity (MAP3K8 (human)): 95.1%
- residual activity (PTK2 (human)): 89.4%
- residual activity (MUSK (human)): 87.4%
- residual activity (ROCK2 (human)): 125%
- residual activity (ADRBK2 (human)): 106%
- residual activity (PNCK (human)): 94.3%
- residual activity (PAK6 (human)): 95.2%
- residual activity (PRKCB1 (human)): 94.5%
- residual activity (MAPKAPK3 (human)): 94.6%
